# In ChEMBL document CHEMBL1201862, “PubChem BioAssay data set” (2004):
#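 Grown in 96-well plates, cells were treated for 48 hours with each compound at five concentrations. Insufficient inhibition: endpoint recorded as highest concentration tested. Here, GI50 denotes the concentration required for 50% inhibition of growth.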 The source made the active and inactive calls. Rule as the data show it: active = GI50 up to about 1.1 µM and inactive = higher. Square brackets hold non-standard residues; d marks the D form. Peptide text beside a SMILES is read from it. * marks the point of attachment. ξ: configuration not given here. ξF = NC(Cc1ccccc1)C(=O)O; Cbz = O=C(OCc1ccccc1)*; Aib = CC(C)(N)C(=O)O
# Key:
# Experiment in all cases: NCI tumour cell line growth inhibition, 48 h
# [1] = system: UACC-62
# [2] = system: COLO 205
# [3] = system: K562
# [4] = system: LOX IMVI
# [5] = system: MDA-N
# [6] = system: NCI/ADR-RES
# [7] = system: 786-0
# [8] = system: M14
# [9] = system: SK-MEL-28
# [10] = system: HOP-92
# [11] = system: HCC 2998
# [12] = system: T47D
# [13] = system: UO-31
# [14] = system: SNB-19
# [15] = system: CAKI-1
# [16] = system: OVCAR-8
# [17] = system: ACHN
# [18] = system: RPMI-8226
# [19] = system: SF-539
# [20] = system: UACC-257
Compound,GI50 [1],GI50 [2],GI50 [3],GI50 [4],GI50 [5],GI50 [6],GI50 [7],GI50 [8],GI50 [9],GI50 [10],GI50 [11],GI50 [12],GI50 [13],GI50 [14],GI50 [15],GI50 [16],GI50 [17],GI50 [18],GI50 [19],GI50 [20]
O=C1CN(C(=O)C2CCCN2C(=O)C2CCCN2)C(=O)CN1 (configuration not stated),> 100 µM (inactive),> 100 µM (inactive),> 100 µM (inactive),> 100 µM (inactive),> 100 µM (inactive),> 100 µM (inactive),> 100 µM (inactive),> 100 µM (inactive),> 100 µM (inactive),> 100 µM (inactive),> 100 µM (inactive),> 100 µM (inactive),> 100 µM (inactive),> 100 µM (inactive),> 100 µM (inactive),> 100 µM (inactive),> 100 µM (inactive),> 100 µM (inactive),,
Cn1c(=O)c2[nH]c(N/N=C3/SCC(=O)N3Cc3ccccc3)nc2n(C)c1=O,> 100 µM (inactive),> 100 µM (inactive),30.5 µM (inactive),,16.4 µM (inactive),> 100 µM (inactive),27 µM (inactive),44.3 µM (inactive),> 100 µM (inactive),15.7 µM (inactive),> 100 µM (inactive),41.1 µM (inactive),> 100 µM (inactive),> 100 µM (inactive),> 100 µM (inactive),> 100 µM (inactive),> 100 µM (inactive),42.4 µM (inactive),29.1 µM (inactive),> 100 µM (inactive)
CC(C)(NC(=O)OCc1ccccc1)C(=O)NC(Cc1ccccc1)C(=O)O (configuration not stated) (Cbz-[Aib]-[ξF]-OH),> 100 µM (inactive),> 100 µM (inactive),> 100 µM (inactive),> 100 µM (inactive),> 100 µM (inactive),> 100 µM (inactive),> 100 µM (inactive),> 100 µM (inactive),> 100 µM (inactive),> 100 µM (inactive),,> 100 µM (inactive),> 100 µM (inactive),> 100 µM (inactive),> 100 µM (inactive),> 100 µM (inactive),,> 100 µM (inactive),> 100 µM (inactive),> 100 µM (inactive)
C=CCN1C(=O)CS/C1=N\NC(=O)CSc1nc2ccccc2c(=O)n1CC,92 µM (inactive),> 100 µM (inactive),> 100 µM (inactive),> 100 µM (inactive),> 100 µM (inactive),> 100 µM (inactive),> 100 µM (inactive),> 100 µM (inactive),> 100 µM (inactive),,> 100 µM (inactive),> 100 µM (inactive),41.9 µM (inactive),> 100 µM (inactive),75.2 µM (inactive),> 100 µM (inactive),> 100 µM (inactive),> 100 µM (inactive),> 100 µM (inactive),> 100 µM (inactive)
c1ccc(CSSSCc2ccccc2)cc1 [DIBENZYL TRISULFIDE],2.15 µM (inactive),1.87 µM (inactive),0.127 µM (active),0.621 µM (active),1.25 µM (inactive),1.86 µM (inactive),0.463 µM (active),2.27 µM (inactive),20.7 µM (inactive),,5.58 µM (inactive),19.8 µM (inactive),6.55 µM (inactive),15.3 µM (inactive),1.41 µM (inactive),1.15 µM (inactive),1.69 µM (inactive),0.313 µM (active),,5.57 µM (inactive)
CC(C)CCCC(C)[C@H]1CC[C@H]2N/C(=N/c3ccccc3)CCC[C@]12C (some centres not stated),1.85 µM (inactive),1.3 µM (inactive),1.33 µM (inactive),0.863 µM (active),3.03 µM (inactive),1.68 µM (inactive),1.77 µM (inactive),1.87 µM (inactive),2.09 µM (inactive),2.97 µM (inactive),,3.09 µM (inactive),1.62 µM (inactive),2.89 µM (inactive),2.29 µM (inactive),0.893 µM (active),,1.65 µM (inactive),1.61 µM (inactive),2.12 µM (inactive)
COC(=O)c1ccc(/C=N/c2ccc(S(N)(=O)=O)cc2)cc1,60.3 µM (inactive),> 100 µM (inactive),,33.5 µM (inactive),59.7 µM (inactive),58.5 µM (inactive),57.1 µM (inactive),53.5 µM (inactive),> 100 µM (inactive),65.5 µM (inactive),> 100 µM (inactive),> 100 µM (inactive),74.5 µM (inactive),> 100 µM (inactive),> 100 µM (inactive),89.1 µM (inactive),84.3 µM (inactive),30.9 µM (inactive),38.2 µM (inactive),14.2 µM (inactive)
CCCCCCCCCCCCCCCC(=O)OCC(O)C1OC(=O)C(O)=C1O (configuration not stated),27.5 µM (inactive),> 100 µM (inactive),27.8 µM (inactive),26.2 µM (inactive),30.8 µM (inactive),29.3 µM (inactive),19.6 µM (inactive),18.8 µM (inactive),20.4 µM (inactive),< 0.01 µM (active),> 100 µM (inactive),97.9 µM (inactive),28.9 µM (inactive),30.1 µM (inactive),43.9 µM (inactive),,34 µM (inactive),,27.4 µM (inactive),> 100 µM (inactive)
